# Data reported in ChEMBL document CHEMBL4382217 (Bioorg Med Chem, 2018).
# Key:
# NCI-H1975 [1] = assay: Antiproliferative activity against human NCI-H1975 cells harboring EGFR T790M/L858R double mutant after 72 hrs by MTS assay; type: functional, cell-based
# [2] = (§1) Antiproliferative activity against human A431 cells harboring WT EGFR after 72 hrs by MTS assay; type: cell-based, A-431; conditions: human, A431 cells harboring WT EGFR
# [3] = Selectivity index, ratio of GI50 for human A431 cells harboring WT EGFR to GI50 for human NCI-H1975 cells harboring EGFR T790M/L858R double mutant
# PC-9 [4] = assay: Antiproliferative activity against human PC9 cells harboring EGFR mutant after 72 hrs by MTS assay; type: functional, cell-based; conditions: PC-9, 72 h
# HCC827 [5] = assay: Antiproliferative activity against human HCC827 cells harboring EGFR mutant after 72 hrs by MTS assay; type: functional, cell-based; conditions: HCC827, 72 h
# Calu-3 = assay: Antiproliferative activity against human Calu3 cells harboring WT EGFR after 72 hrs by MTS assay; type: cell-based; conditions: Calu-3, 72 h
# Calu-6 = assay: Antiproliferative activity against human Calu6 cells harboring WT EGFR after 72 hrs by MTS assay; type: cell-based; conditions: Calu-6, 72 h
# NCI-H1975 [6] = assay: Antitumor activity against human NCI-H1975 cells harboring EGFR T790M/L858R double mutant xenografted in castrated nude mouse assessed as tumor growth inhibition at 20 mg/kg, po daily for 14 consecutive days measured on day 15 relative to control; type: functional
# PC-9 [7] = assay: Antitumor activity against human PC9 cells harboring EGFR exon-19 del mutant xenografted in castrated nude mouse assessed as tumor growth inhibition at 10 mg/kg, po daily for 14 consecutive days measured on day 15 relative to control; type: functional
# HCC827 [8] = assay: Antitumor activity against human HCC827 cells harboring EGFR exon-19 del mutant xenografted in castrated nude mouse assessed as tumor growth inhibition at 10 mg/kg, po daily for 14 consecutive days measured on day 15 relative to control; type: functional
# [9] = Toxicity in castrated nude mouse xenografted with human NCI-H1975 cells assessed as body weight loss at 20 mg/kg, po daily for 14 consecutive days relative to control; type: organism-based; conditions: in vivo
# [10] = Toxicity in castrated nude mouse xenografted with human PC9 cells assessed as body weight loss at 10 mg/kg, po daily for 14 consecutive days relative to control; type: organism-based; conditions: in vivo
# [11] = Toxicity in castrated nude mouse xenografted with human HCC827 cells assessed as body weight loss at 10 mg/kg, po daily for 14 consecutive days relative to control; type: organism-based; conditions: in vivo
# [12] = Half life in po dosed mouse; type: ADME, organism-based; conditions: in vivo
# [13] = Drug level in human liver microsomes treated with N-(2-((2-(Dimethylamino)ethyl)(methyl)amino)-4-methoxy-5-((4-(1-methyl-1H-pyrrolo[3,2-b]pyridin-3-yl)pyrimidin-2-yl)amino)phenyl)acrylamide by LC-MS/MS analysis; type: ADME, Microsome
# A-431 = assay: as §1; type: cell-based; conditions: Homo sapiens, A-431, 72 h
# [14] = target: Epidermal growth factor receptor (Homo sapiens, UniProt P00533, L858R/T790M); assay: Inhibition of recombinant human N-terminal GST-tagged EGFR T790M/L858R double mutant (696-end residues) by fluorescence assay
# [15] = target: Epidermal growth factor receptor (Homo sapiens, UniProt P00533, L858R); assay: Inhibition of recombinant human GST-tagged EGFR L858R mutant expressed in baculovirus expression system by fluorescence assay
# [16] = target: Epidermal growth factor receptor (Homo sapiens, UniProt P00533); assay: Inhibition of recombinant human N-terminal GST-tagged EGFR (696-end residues) expressed in baculovirus expression system using Srctide as substrate by fluorescence assay
# Homo sapiens = organism: Homo sapiens; assay: Selectivity index, ratio of IC50 for recombinant human N-terminal GST-tagged EGFR (696-end residues) expressed in baculovirus expression system to IC50 for recombinant human N-terminal GST-tagged EGFR T790M/L858R double mutant (696-end residues)
# Chain of Epidermal growth factor receptor (Homo sapiens, UniProt P00533) (P00533 whole entry): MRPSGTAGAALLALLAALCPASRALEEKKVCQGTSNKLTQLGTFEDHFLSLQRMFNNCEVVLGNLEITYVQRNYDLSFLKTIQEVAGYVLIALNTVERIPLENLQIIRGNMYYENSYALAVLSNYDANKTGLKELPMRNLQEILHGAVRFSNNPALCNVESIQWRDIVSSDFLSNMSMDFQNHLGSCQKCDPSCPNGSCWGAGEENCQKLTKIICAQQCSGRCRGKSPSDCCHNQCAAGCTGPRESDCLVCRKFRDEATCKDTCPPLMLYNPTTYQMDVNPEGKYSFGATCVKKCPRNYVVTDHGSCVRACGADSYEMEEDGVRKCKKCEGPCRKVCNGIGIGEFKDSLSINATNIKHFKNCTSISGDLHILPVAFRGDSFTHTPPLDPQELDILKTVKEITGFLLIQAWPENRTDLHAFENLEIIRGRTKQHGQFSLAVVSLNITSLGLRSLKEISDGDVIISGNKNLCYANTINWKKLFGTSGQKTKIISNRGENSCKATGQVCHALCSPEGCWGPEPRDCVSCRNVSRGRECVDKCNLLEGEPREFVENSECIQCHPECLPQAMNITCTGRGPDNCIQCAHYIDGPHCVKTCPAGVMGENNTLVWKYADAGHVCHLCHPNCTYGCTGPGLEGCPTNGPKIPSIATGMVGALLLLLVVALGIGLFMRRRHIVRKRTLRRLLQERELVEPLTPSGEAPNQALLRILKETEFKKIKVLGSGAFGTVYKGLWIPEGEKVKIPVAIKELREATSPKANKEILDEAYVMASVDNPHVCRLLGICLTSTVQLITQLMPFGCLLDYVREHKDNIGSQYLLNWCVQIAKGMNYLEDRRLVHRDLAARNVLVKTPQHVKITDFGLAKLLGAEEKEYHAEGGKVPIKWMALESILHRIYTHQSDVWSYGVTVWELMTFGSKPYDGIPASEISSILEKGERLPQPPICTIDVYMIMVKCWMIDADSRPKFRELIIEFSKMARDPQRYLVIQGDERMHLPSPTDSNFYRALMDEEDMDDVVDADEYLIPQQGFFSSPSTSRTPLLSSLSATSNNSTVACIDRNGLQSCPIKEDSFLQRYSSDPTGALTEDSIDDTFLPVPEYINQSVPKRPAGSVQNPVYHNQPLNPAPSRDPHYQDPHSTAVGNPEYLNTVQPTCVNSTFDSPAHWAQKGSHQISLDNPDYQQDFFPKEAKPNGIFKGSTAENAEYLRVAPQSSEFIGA
# Chain of Epidermal growth factor receptor (Homo sapiens, UniProt P00533, L858R/T790M) (P00533 25-1210 T790M/L858R limits assumed): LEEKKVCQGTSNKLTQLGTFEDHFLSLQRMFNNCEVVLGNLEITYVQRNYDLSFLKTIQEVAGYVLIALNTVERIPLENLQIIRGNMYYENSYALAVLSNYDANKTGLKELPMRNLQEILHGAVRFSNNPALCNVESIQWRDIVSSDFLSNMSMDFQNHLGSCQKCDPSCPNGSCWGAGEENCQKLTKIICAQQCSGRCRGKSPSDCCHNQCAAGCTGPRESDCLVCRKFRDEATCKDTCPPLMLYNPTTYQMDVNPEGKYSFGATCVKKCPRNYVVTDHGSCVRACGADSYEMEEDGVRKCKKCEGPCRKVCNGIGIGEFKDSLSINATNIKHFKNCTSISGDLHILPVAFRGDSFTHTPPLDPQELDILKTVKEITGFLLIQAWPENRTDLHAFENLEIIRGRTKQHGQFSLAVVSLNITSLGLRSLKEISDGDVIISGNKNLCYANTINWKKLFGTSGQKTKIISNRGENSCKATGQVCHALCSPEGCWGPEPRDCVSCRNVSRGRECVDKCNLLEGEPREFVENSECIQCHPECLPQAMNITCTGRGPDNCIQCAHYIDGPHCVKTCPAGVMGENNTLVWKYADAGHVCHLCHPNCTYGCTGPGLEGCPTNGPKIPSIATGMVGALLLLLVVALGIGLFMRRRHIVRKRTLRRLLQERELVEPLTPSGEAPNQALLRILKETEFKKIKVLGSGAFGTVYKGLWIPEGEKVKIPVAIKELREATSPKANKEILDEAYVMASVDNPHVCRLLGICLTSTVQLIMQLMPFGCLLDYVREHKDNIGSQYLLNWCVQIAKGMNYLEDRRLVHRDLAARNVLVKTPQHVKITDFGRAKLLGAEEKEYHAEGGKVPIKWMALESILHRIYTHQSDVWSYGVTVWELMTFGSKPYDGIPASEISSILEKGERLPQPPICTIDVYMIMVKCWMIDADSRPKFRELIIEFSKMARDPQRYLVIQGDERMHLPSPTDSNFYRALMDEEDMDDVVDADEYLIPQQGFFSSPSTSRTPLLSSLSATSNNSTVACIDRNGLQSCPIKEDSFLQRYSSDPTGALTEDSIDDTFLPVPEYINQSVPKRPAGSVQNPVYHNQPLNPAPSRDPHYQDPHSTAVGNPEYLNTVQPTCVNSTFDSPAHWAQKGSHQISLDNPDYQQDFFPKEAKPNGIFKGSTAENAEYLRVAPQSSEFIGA
# Chain of Epidermal growth factor receptor (Homo sapiens, UniProt P00533, L858R) (P00533 25-1210 L858R limits assumed): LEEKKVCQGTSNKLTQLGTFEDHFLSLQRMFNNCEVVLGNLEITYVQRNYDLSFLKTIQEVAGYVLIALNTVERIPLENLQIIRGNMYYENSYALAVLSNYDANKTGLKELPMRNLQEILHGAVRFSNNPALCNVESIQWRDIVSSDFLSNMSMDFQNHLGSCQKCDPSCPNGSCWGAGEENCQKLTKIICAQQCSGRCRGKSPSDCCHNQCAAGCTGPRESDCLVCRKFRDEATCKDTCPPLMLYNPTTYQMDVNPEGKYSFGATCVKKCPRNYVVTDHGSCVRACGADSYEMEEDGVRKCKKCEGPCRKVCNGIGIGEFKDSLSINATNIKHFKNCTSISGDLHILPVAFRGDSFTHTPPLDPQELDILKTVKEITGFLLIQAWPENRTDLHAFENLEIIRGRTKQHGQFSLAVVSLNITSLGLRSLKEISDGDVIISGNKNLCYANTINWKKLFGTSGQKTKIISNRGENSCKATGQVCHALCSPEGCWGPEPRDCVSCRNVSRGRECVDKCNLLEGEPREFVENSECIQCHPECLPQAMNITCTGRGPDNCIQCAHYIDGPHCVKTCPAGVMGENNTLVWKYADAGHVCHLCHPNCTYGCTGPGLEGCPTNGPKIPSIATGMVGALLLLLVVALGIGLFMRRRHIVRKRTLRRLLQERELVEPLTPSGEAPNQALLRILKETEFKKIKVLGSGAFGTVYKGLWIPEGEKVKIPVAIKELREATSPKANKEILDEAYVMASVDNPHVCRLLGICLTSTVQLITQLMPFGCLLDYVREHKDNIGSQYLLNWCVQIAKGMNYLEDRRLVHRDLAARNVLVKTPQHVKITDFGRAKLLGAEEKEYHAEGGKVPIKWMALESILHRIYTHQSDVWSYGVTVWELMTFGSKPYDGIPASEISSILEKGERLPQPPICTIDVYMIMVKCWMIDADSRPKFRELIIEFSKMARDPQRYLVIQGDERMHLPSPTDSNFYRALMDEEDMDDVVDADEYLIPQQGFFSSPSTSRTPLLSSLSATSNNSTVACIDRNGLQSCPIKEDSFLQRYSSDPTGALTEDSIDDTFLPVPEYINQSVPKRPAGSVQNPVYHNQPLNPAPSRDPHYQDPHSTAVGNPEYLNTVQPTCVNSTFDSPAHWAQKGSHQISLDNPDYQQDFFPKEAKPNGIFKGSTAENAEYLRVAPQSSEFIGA
"GI50 (NCI-H1975 [1]; Homo sapiens, NCI-H1975, 72 h) [nM]",SMILES,GI50 at 72 h [2] [nM],RatioGI50 [3],"IC50 (NCI-H1975 [1]; Homo sapiens, NCI-H1975, 72 h) [nM]",IC50 (PC-9 [4]) [nM],IC50 (HCC827 [5]) [nM],IC50 (Calu-3) [nM],IC50 (Calu-6) [nM],other results
2880,C=CC(=O)Nc1cc(Nc2nccc(-c3cn(C)c4cccnc34)n2)c(OC)cc1N1CCC[C@H]1CN(C)C,2100,0.7,,,,,,
49,C=CC(=O)Nc1cc(Nc2nccc(-c3noc4ccccc34)n2)c(OC(F)F)cc1N1CCN(C)CC1,1720,35.1,,,,,,
,C=CC(=O)Nc1cc(Nc2nccc(-c3cn(C)c4ccccc34)n2)c(OC)cc1N(C)CCN(C)C [OSIMERTINIB],,,[…],160,[…],[…],5860,GI50 (NCI-H1975 [1]): […]; TGI (NCI-H1975 [6]): […]; TGI (PC-9 [7]): […]; TGI (HCC827 [8]): 121%; Activity [9]: <= 15%; Activity [10]: 8%; Activity [11]: 8%; half-life [12]: […]
296,C=CC(=O)Nc1cc(Nc2nccc(-c3nn(C)c4ccsc34)n2)c(OC(F)F)cc1N1CCN(C)CC1,1130,3.8,,,,,,
,C=CC(=O)Nc1cc(Nc2nccc(-c3cn(C)c4cccnc34)n2)c(OC)cc1N(C)CCNC,,,270,330,42,> 10000,> 10000,Drug metabolism [13]: Metabolite_Detected; IC50 (A-431): 3470 nM; IC50 [14]: 6600 nM; IC50 [15]: 12000 nM; IC50 [16]: 277000 nM; Ratio IC50 (Homo sapiens): 42
6.5,C=CC(=O)Nc1cc(Nc2nccc(-c3nn(C)c4ccsc34)n2)c(OC(F)F)cc1N(C)CCN(C)C,85.8,13.2,,,,,,
,C=CC(=O)Nc1cc(Nc2nccc(-c3cn(C)c4cccnc34)n2)c(OC)cc1NCCN(C)C,,,790,740,75,> 10000,> 10000,Drug metabolism [13]: Metabolite_Detected; IC50 (A-431): 6780 nM; IC50 [14]: 15000 nM; IC50 [15]: 12000 nM; IC50 [16]: 77000 nM; Ratio IC50 (Homo sapiens): 5.1
4,C=CC(=O)Nc1cc(Nc2nccc(-c3noc4ccccc34)n2)c(OC(F)F)cc1N(C)CCN(C)C,89.1,22.3,,,,,,
166,C=CC(=O)Nc1cc(Nc2nccc(-c3cn(C)c4cccnc34)n2)c(OC(F)F)cc1N1CCN(C)CC1,1440,8.7,,,,,,
